# In patent publication US20050043262A1, “Novel specific inhibitor of the cyclin kinase inhibitor p21Waf1/Cip1 and methods of using the inhibitor” (priority 2000, published 2005):
# In the oligonucleotide strings, read from the 5' end, every base follows the letter of its sugar. An asterisk marks phosphorothioate; unmarked linkages are phosphodiester. Other units and linkages are bracketed, terminal groups are in braces. A string of capitals states the bases alone. d = 2'-deoxy (DNA)
# Legend:
# Type in all cases: cell-based, human
# p21 = p21 level in T47D cells (immunoblot, immunohistochemistry); conditions: for p21 level by immunoblot: 200 or 400 nM, 24 hours after transfection
# Protocol: Antisense Transfections: […] (Wilsonville, Oreg.). The human p21 antisense ODN sequence was [NT] ID NO.: 4). The randomly scrambled sequence of control ODN was [NT] ID NO.: 3), and the second control ODN (used for the experiment depicted in FIG. 34 was the sense human p21 sequence [NT] ID NO.: 5). For the transfection procedure, cells were grown to 70% confluence and washed with sterile PBS, and the ODNs (200 or 400 nM) were mixed with 6.6 μl Lipofectin/ml Opti-MEM media and added to the cells for 5 hours at 37° C. Serum-free media (without ODNs) were added overnight, the media were changed in the morning, and the cells were stimulated with serum or platelet-derived growth factor-BB as indicated. Immunoblotting: For FIGS. 27A and B, aliquots of each breast tumor (7) and corresponding normal (N) tissue were homogenized and subjected to immunoblotting with full-length p21 antibody and α-actin as a loading control. Density of p21 and actin bands was determined and reported as a ratio. HeLa cell nuclear extract was electrophoresed on the same gel as a positive control for p21 mobility. The samples of breast cancer tissues were cut into small pieces and rapidly homogenized in lysis buffer (1 ml/ mg) at 4° C. Cells from cell lines were grown to confluence in 60-mm culture dishes, and after incubation under appropriate conditions, the cells were washed with PBS and lysed in lysis buffer at 4° C. The tissue homogenates or cell lysates were centrifuged (13,000× g, 4° C., 10 min), and the supernatants were Western blotted as described previously (Weiss, […]., and Ramirez, A., Am. J. Physiol., 274: […]-[…], 1998). Densitometry was analyzed using NIH Image. […] Percentage of cytoplasmic and nuclear staining, intensity of staining (using a scale of 0 to 3+), and tumor grading using a modified Bloom-Richardson combined histological grade were determined by a breast pathologist. […] A and B, the cells were lysed, and equal protein quantities (20 μg) were electrophoresed and immunoblotted with p21 antibody. […] Density of p21 and MAPK bands was determined and reported as a ratio. […]
# MAPK = MAPK level (immunoblot) in ODN-transfected breast cancer cells; conditions: ODN-transfected cells compared with controls
# Protocol: Due to the high levels of p21 in these two human breast cancer cell lines, it was reasoned that, in a manner similar to their effect in VSM cells (Weiss, R. H., Joo, A., and Randour, C., J. Biol. Chem., 275: 10285-10290, 2000), antisense ODNs to p21 may result in increased apoptosis and/or cell cycle arrest. […] T47D and MCF7 cells were lipofected with either antisense p21 ODN (200 or 400 nM), the control ODN at the same concentrations, or lipofectin alone (no DNA). MCF7 and T47D cells were grown to confluence, serum starved for 24 hours, and lipofected with antisense p21 or control ODN or lipofectin only. cont refers to nontransfected cells. The cells were subsequently serum stimulated for another 24 hours. A and B, the cells were lysed, and equal protein quantities (20 μg) were electrophoresed and immunoblotted with p21 antibody. The same lysate was immunoblotted with MAPK antibody as a loading control. Density of p21 and MAPK bands was determined and reported as a ratio. C, the cells were transfected as described in A, fixed, subjected to immunohistochemistry with p21 antibody as described in “Immunohistochemistry” in Example VI, and examined under visible light at X400. Control cells (FIG. 30, cont) were not transfected. […] There was no effect of lipofectin alone when compared with no transfection (control).
# cyclinD/cdk4 = assay: Cyclin D1 immunoprecipitation / cdk4 immunoblot in A431 cells; conditions: PDGF-BB 30 ng/ml
# Description: Cyclin/cdk interactions occur after growth factor stimulation and serve to integrate such responses with the CKIs and transmit them to the Rb/E2F systems, which leads to mitogenic signal transmission. The cyclin D1/cdk 4 interaction occurs early after growth factor stimulation (reviewed in (Arellano and Moreno, 1997 Int. J. Biochem. Cell Biol., 29, p. 559-573)), while the cyclinE/cdk2 interaction occurs late in G1 and is thought to have a role in triggering the actual onset of DNA replication after the cells have passed the restriction point (reviewed in (Sherr and Roberts, 1995: Genes Dev., 9, p. 1149-1163)). A431 cells were transfected with p21^Waf1/Cip1 antisense (SEQ. ID NO.:1) or sense (SEQ. ID NO.:2) oligodeoxynucleotide, allowed to grow overnight in serum-free media, and then stimulated for various times with PDGF-BB. The cells were subsequently immunoprecipitated with either cyclinD1 or cyclinE and immunoblotted with cdk4 or cdk2, respectively. A lysate sample, showing the mobility of the immunoprecipitated cdks, confirmed the identity of the cdks. A431 cells were transfected with antisense (SEQ. ID NO.:1) or sense p21^Waf1/Cip1 (SEQ. ID NO.:2) oligonucleotides. […]
substance,measurement,setting,value
"5′-ATC-CCC-AGC-CGG-TTC-TGA-CAT-3′ (antisense ATCCCCAGCCGGTTCTGACAT; listed as DNA, chemistry not fully specified) [antisense p21 ODN]",p21 level by immunoblot,p21,"marked, dose-dependent attenuation"
same,p21 staining by immunohistochemistry,p21; compared with random sequence ODN,decreased p21 staining
same,MAPK levels,MAPK,lack of modulation
5′-GACATCACCAGGATCGGACAT-3′,cyclinD/cdk4 association,cyclinD/cdk4,no change
"5′-TGG ATC CGA CAT GTC AGA-3′ (dT*dG*dG*dA*dT*dC*dC*dG*dA*dC*dA*dT*dG*dT*dC*dA*dG*dA) [random sequence control oligonucleotide, reference compound]",p21 level by immunoblot,p21,inhibitory effect
